Here are results for seven compounds from patent publication US9585865B2, “Small molecule modulators of the cold and menthol receptor TRPM8” (B.R.A.I.N. Biotechnology Research and Information Network AG, priority 2011, dated 2017).

For one experiment, the target named is T1, human TRPA1 (Homo sapiens, UniProt O75762).
T1 construct: expressed in transfected cells; host or cells: HEK293 (human cells)
The experiment is described as follows: functional cell based calcium assay, cells recombinantly expressing human TRPA1. Particulars: activator (agonist) of TRPA1; intracellular calcium, calcium-sensitive dye fluorescence. An excerpt:
(§1) As used herein, a functional cell based assay under standard conditions means evaluating the cellular activity of compounds with regard to the modulation of the intracellular calcium level using cells recombinantly expressing human TRPM8 or human TRPA1. In particular, in this context the term “standard conditions” means an activity test using HEK293 cells recombinantly expressing either human TRPM8 or human TRPA1, which cells have been contacted with a calcium-sensitive dye (such as Fluo-4AM, i.e. Fluo-4-acetoxymethylester), wherein the cells are incubated with the compound to be tested, and receptor modulation is quantitatively detected by calcium-dependent changes is fluorescence intensity. Such a test system is disclosed, inter alia, in Behrendt H J et al., Br. J. Pharmacol. 2004, 141:737-745, which is enclosed herein by reference.
(§2) A screening for novel modulators of TRPM8 was conducted. For the screening, a routine screening setup was used. In particular, the compounds comprised by a compound library were tested for agonistic activity towards TRPM8 and a dose response analysis of the most promising candidates was conducted (TRPM8 versus TRPA1). In particular, promising candidates were analyzed with regard to their EC50 values as well as their efficacy values, and 7 development candidates were selected (i.e. Compounds I.3, II.3, III.3, IV.3, V.3, VI.3, and VII.3, as described herein above).
(§3) For the above analysis, a functional cell based assay under standard conditions as described herein was used, i.e. the cellular activity of the compounds with regard to the modulation of the intracellular calcium level was evaluated using cells recombinantly expressing human TRPM8 or human TRPA1. In particular, human cells recombinantly expressing either human TRPM8 or human TRPA1 were used, which cells have been contacted with a calcium-sensitive dye, wherein the cells were incubated with the compound to be tested, and receptor modulation was quantitatively detected by calcium-dependent changes in fluorescence intensity. Such a test system is disclosed, inter alia, in Behrendt H J et al., Br. J. Pharmacol. 2004, 141:737-745, which is enclosed herein by reference. Such a test system is also disclosed, inter alia, in WO 2010/026094, which is also enclosed herein by reference. However, it should be understood that any screening method and method suitable for evaluating the agonistic activity of compounds towards a channel (such as TRPM8) can be used. Suitable methods are routine and known to the skilled person.
On the technique in general: A change in cytosolic calcium serves as a functional read-out for many receptors and channels.

Another experiment concerns the target T2, human TRPM8 (Homo sapiens, UniProt Q7Z2W7).
T2 construct: expressed in transfected cells; host or cells: HEK293 (human cells)
Briefly: functional cell based calcium assay, cells recombinantly expressing human TRPM8. Particulars: for EC50: activator (agonist) of TRPM8, intracellular calcium, calcium-sensitive dye fluorescence; for EC50 as activator of TRPM8 times lower than EC50 as activator of TRPA1: ratio EC50 TRPA1 / EC50 TRPM8.
Source text: as §1, §2, §3

Values joined by “and” are separate entries in the source; they are usually repeats but may differ in a detail not shown here. Equal entries are not always repeated.

T2 sequence (Q7Z2W7 whole entry): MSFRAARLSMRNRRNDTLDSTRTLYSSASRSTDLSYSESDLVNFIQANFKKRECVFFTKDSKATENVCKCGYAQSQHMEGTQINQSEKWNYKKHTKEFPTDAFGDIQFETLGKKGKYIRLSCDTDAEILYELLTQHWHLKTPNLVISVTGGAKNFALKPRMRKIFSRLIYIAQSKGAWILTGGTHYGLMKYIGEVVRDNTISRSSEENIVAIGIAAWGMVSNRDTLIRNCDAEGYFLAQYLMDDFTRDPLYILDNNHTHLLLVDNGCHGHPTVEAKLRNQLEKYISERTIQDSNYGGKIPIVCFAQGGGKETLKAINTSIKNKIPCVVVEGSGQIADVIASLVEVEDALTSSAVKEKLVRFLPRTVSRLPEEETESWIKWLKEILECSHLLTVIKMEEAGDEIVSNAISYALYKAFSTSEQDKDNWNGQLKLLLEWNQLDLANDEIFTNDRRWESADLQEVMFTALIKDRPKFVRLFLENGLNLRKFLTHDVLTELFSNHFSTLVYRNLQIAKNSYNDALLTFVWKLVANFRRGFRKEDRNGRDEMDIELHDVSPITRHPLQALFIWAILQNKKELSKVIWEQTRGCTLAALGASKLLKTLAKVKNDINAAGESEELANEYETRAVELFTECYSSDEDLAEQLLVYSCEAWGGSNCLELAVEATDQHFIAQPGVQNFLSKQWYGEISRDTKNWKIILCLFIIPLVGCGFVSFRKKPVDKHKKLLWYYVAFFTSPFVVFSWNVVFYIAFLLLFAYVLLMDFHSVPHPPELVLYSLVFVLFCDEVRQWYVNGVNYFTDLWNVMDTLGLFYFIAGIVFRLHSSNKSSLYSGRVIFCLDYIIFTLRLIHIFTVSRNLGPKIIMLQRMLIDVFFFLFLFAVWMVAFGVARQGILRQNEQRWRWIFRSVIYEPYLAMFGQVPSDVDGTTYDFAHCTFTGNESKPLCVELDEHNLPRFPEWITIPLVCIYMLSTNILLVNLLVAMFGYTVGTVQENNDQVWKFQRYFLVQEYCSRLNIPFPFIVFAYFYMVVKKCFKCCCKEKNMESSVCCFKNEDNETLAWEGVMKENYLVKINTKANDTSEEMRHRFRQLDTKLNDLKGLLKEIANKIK
T1 sequence (O75762 whole entry): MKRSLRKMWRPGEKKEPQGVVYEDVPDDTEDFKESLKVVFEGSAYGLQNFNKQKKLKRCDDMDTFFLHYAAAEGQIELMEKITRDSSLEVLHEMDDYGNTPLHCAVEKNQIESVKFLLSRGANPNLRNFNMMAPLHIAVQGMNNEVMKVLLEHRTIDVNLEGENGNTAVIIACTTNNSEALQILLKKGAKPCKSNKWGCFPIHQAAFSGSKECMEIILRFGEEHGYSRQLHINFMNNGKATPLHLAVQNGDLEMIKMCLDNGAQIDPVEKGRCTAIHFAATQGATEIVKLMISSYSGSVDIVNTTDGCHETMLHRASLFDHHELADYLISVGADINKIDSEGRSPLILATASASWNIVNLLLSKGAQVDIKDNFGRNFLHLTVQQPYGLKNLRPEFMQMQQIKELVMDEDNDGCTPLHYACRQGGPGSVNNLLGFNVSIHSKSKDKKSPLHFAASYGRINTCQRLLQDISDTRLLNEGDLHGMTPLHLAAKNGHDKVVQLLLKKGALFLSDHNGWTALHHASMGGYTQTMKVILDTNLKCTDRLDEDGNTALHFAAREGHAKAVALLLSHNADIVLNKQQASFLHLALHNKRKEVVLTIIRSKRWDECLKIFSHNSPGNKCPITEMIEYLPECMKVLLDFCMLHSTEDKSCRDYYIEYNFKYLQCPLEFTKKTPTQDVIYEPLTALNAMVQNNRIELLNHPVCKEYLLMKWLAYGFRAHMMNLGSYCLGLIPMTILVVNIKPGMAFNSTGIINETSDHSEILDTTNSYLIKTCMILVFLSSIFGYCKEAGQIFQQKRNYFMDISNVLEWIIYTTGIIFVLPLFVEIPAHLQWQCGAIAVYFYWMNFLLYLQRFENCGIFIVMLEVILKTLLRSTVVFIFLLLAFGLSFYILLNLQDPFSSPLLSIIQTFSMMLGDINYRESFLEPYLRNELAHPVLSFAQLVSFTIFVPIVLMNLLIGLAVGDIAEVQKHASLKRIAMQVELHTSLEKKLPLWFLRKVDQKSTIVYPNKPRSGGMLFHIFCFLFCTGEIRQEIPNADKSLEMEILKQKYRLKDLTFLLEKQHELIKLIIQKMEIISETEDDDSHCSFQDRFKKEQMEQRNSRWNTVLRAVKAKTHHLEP

For the compound `COc1ccc2c(=O)c(-c3ccccc3)c(C)oc2c1` [Compound I.3, 7-methoxy-2-methyl-3-phenyl-4H-chromen-4-one], the EC50 at human TRPA1 is ~72.4 µM and 72.4 µM. Further, on human TRPM8, the EC50 is ~2.01 µM and 2.01 µM; the “EC50 as activator of TRPM8 times lower than EC50 as activator of TRPA1” value is “about 36 times”.
For the compound `COc1ccc(OC)c(NC=C2C(=O)CC(C)(C)CC2=O)c1` [Compound II.3, 2-{[(2,5-dimethoxyphenyl)amino]methylidene}-5,5-dimethylcyclohexane-1,3-dione], the EC50 on human TRPA1 is ~123 µM and 123 µM; on human TRPM8, ~8.01 µM and 8.01 µM. In addition, the “EC50 as activator of TRPM8 times lower than EC50 as activator of TRPA1” value on human TRPM8 is “about 15.4 times”.
In the case of `Cc1ccc(-c2cc(C(=O)N/N=C/c3ccncc3)[nH]n2)s1` [Compound III.3, 3-(5-methylthiophen-2-yl)-N′-[(1E)-pyridin-4-ylmethylidene]-1H-pyrazole-5-carbohydrazide], the EC50 on human TRPA1 is ~113 µM and 113 µM. On human TRPM8, the EC50 was ~5.27 µM and 5.27 µM; the “EC50 as activator of TRPM8 times lower than EC50 as activator of TRPA1” value was “about 21.5 times”.
Turning to `CCCc1cc(=O)[nH]c(SCC(=O)Nc2cc(Cl)ccc2Cl)n1` [Compound IV.3, N-(2,5-dichlorophenyl)-2-[(6-oxo-4-propyl-1,6-dihydropyrimidin-2-yl)sulfanyl]acetamide], the concentration for a half-maximal effect (EC50) was ~118 µM and 118 µM on human TRPA1; ~4.12 µM and 4.12 µM at human TRPM8. Also, the “EC50 as activator of TRPM8 times lower than EC50 as activator of TRPA1” value at human TRPM8 is given as “about 28.6 times”.
As for `Cc1nc2ccccc2n1CCC(=O)N1CCN(Cc2ccc3c(c2)OCO3)CC1` [Compound V.3, 1-[4-(2H-1,3-benzodioxol-5-ylmethyl)piperazin-1-yl]-3-(2-methyl-1H-1,3-benzodiazol-1-yl)propan-1-one], the EC50 at human TRPA1 was ~138 µM and 138 µM. In addition, on human TRPM8, the EC50 is ~7.53 µM and 7.53 µM; the “EC50 as activator of TRPM8 times lower than EC50 as activator of TRPA1” value is on record as “about 18.4 times”.
For the compound `Cc1ccc(C(=O)NCC2(c3ccccc3)CCOCC2)cc1` [Compound VI.3, 4-methyl-N-[(4-phenyloxan-4-yl)methyl]benzamide], at human TRPA1, the EC50 is ~108 µM and 108 µM. Moreover, at human TRPM8, the EC50 is ~8.15 µM and 8.15 µM; the “EC50 as activator of TRPM8 times lower than EC50 as activator of TRPA1” value is given as “about 13.2 times”.
Consider `CC(C)C(CCNCCCN(C)C)c1ccc(Cl)cc1` (stereo not drawn) [Compound VII.3, [3-(4-chlorophenyl)-4-methylpentyl][3-(dimethylamino)propyl]amine], for which the EC50 at human TRPA1 is ~56.6 µM and 56.6 µM. At human TRPM8, the EC50 was ~10.9 µM and 10.9 µM; the “EC50 as activator of TRPM8 times lower than EC50 as activator of TRPA1” value is “about 5.2 times”.

The term EC50 denotes the concentration needed to bring the measured effect to its halfway point.
